The record followed here is patent US20260103471A1, “CYCLIC UREA THIAZOLYL COMPOUNDS FOR TREATMENT OF HSV” (Assembly Biosciences, Inc., priority 2022, published 2026).

Molecules are shown by their SMILES.

The first test relates to HSV-2 G strain. The experiment in a line: HSV-2 Antiviral Assay (Vero cells, cell viability). The class given is cell-based. Conditions: Human alphaherpesvirus 2, Vero, 120 h, Vero cells, 160 TCID50 HSV-2 G strain, 5 days, cell viability. Put shortly:
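Vero cells (1.0×10^4/well, attached overnight) given 8-point 3-fold compound dilutions (0.5% DMSO) then infected with 160 TCID50 HSV-2 G strain in 2% FBS medium for 5 days at 37 °C. Protection read as cell viability by WST-8 absorbance at 460 and 620 nm after 3 h.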
Compound `Cc1nc(N2CCCN(c3ccc(-c4cc(C(F)(F)F)cc5c4c(F)cn5C)cc3)C2=O)sc1S(N)(=O)=O` [Compound 297] gave an EC50 of 100 to 1000 nM.
The compound `Cc1nc(N2CCCN(c3ccc(-c4cccc5ccnn45)cc3)C2=O)sc1S(N)(=O)=O` [Compound 248] gave an EC50 below 100 nM.
Same read-out and setting: under `Cc1nc(N2CCCN(c3ccc(-c4cc(F)ccc4-c4cnn(C)c4)cc3)C2=O)sc1S(N)(=O)=O` [Compound 207] stands 100 to 1000 nM; under `Cc1nc(N2CCCN(c3ccc(-c4cc(C#N)cc5c4ccn5C)cc3)C2=O)sc1S(N)(=O)=O` [Compound 302], 100 to 1000 nM; under `Cc1nc(N2CC3(CC3)CN(c3ccc(-c4ncccc4F)cc3)C2=O)sc1S(N)(=O)=O` [Compound 112], below 100 nM.
The same measure, in the same setting: under `Cc1nc(N2CC3(CCCC3)CN(c3ccc(-c4cccc5ncsc45)cc3)C2=O)sc1S(N)(=O)=O` [Compound 337] stands below 100 nM.
Same read-out and setting: under `Cc1nc(N2CC3(CC3)CN(c3ccc(-c4nnco4)cc3)C2=O)sc1S(N)(=O)=O` [Compound 335] stands 1000 to 5000 nM; under `Cc1nc(N2C[C@H](C)CN(c3ccc(-c4cc(F)ccc4F)cc3)C2=O)sc1S(N)(=O)=O` (single isomer, unassigned) [Compound 319], below 100 nM.
In the case of `Cc1nc(N2CCCN(c3ccc(-c4cc(F)ccc4F)cc3)C2=O)sc1S(=O)(=O)NCC(F)(F)CO` [Compound 392], the EC50 is below 100 nM.
Still for that read-out and setting: under `Cc1nc(N2CCCN(c3ccc(-c4cc(F)cc5cc(C#N)sc45)cc3)C2=O)sc1S(N)(=O)=O` [Compound 276] stands below 100 nM; under `Cc1nc(N2CC3(CCCC3)CN(c3ccc(-c4cc(F)ccc4F)cc3)C2=O)sc1S(N)(=O)=O` [Compound 336], below 100 nM.
Same read-out and setting: as for `Cc1nc(N2CCCN(c3ccc(-c4cc(C(C)(F)F)cc5c4OCO5)cc3)C2=O)sc1S(N)(=O)=O` [Compound 273], the figure is 100 to 1000 nM; as for `Cc1nc(N2CCCN(c3ccc(-c4cc(F)ccc4C#CC(C)(C)O)cc3)C2=O)sc1S(N)(=O)=O` [Compound 19, 2-(3-(5′-Fluoro-2′-(3-hydroxy-3-methylbut-1-yn-1-yl)-[1,1′-biphenyl]-4-yl)-2-oxotetrahydropyrimidin-1(2H)-yl)-4-methylthiazole-5-sulfonamide], 1000 to 5000 nM; as for `Cc1nc(N2CCCN(c3ccc(-c4cc(C(F)(F)F)cc5c4ccn5C)cc3)C2=O)sc1S(N)(=O)=O` [Compound 246], below 100 nM.
Same read-out and setting: under `COC1CN(c2ccc(-c3cc(F)ccc3F)cc2)C(=O)N(c2nc(C)c(S(N)(=O)=O)s2)C1` (stereo not drawn) [Compound 357, 2-(3-(2′,5′-difluoro-[1,1′-biphenyl]-4-yl)-5-methoxy-2-oxotetrahydropyrimidin-1(2H)-yl)-4-methylthiazole-5-sulfonamide] stands 1000 to 5000 nM; under `Cc1cc(Cl)c(F)c(-c2ccc(N3CCCN(c4nc(C)c(S(N)(=O)=O)s4)C3=O)cc2)n1` [Compound 236], below 100 nM.
As to `Cc1nc(N2CCCN(c3ccc(-c4cc(F)cc5c4c(F)cn5C)cc3)C2=O)sc1S(N)(=O)=O` [Compound 295], the EC50 is below 100 nM.
The same measure, in the same setting: as for `Cc1nc(N2CCCN(c3ccc(-c4cc(F)cc5c4c(C)cn5C)cc3)C2=O)sc1S(N)(=O)=O` [Compound 291], the figure is below 100 nM; as for `Cc1nc(N2CC(F)(F)CN(c3ccc(-c4cc(F)ccc4F)cc3)C2=O)sc1S(N)(=O)=O` [Compound 367], below 100 nM; as for `COc1c(F)cc(F)cc1-c1ccc(N2CC(C(F)(F)F)CN(c3nc(C)c(S(N)(=O)=O)s3)C2=O)cc1` (stereo not drawn) [Compound 372], below 100 nM.
Still for that read-out and setting: as for `Cc1nc(N2CCCN(c3ccc(-c4cc(F)ccc4F)cc3)C2=O)sc1S(=O)(=O)NC[C@H](C)CO` [Compound 396], the figure is below 100 nM; as for `Cc1nc(N2CCCN(c3ccc(-c4cc(F)ccc4F)cc3)C2=O)sc1S(=O)(=O)NO` [Compound 385], 100 to 1000 nM.
On the same count and under the same terms, as for `Cc1nc(N2CCCN(c3ccc(-c4cccc(-c5nccs5)c4)cc3)C2=O)sc1S(N)(=O)=O` [Compound 30, 4-methyl-2-(2-oxo-3-(3′-(thiazol-2-yl)-[1,1′-biphenyl]-4-yl)tetrahydropyrimidin-1(2H)-yl)thiazole-5-sulfonamide], the figure is below 100 nM; as for `Cc1nc(N2CCCN(c3ccc(-c4cc(F)ccc4F)cc3)C2=O)sc1S(=O)(=O)NCC(C)CO` (stereo not drawn) [Compound 394], below 100 nM; as for `Cc1nc(N2CCCN(c3ccc(-c4cc(F)ccc4-c4cncs4)cc3)C2=O)sc1S(N)(=O)=O` [Compound 231], 100 to 1000 nM.
In turn, `Cc1nc(N2CCCN(c3ccc(-c4ccccc4F)cc3)C2=O)sc1[S@](C)(=N)=O` (single isomer, unassigned) [Compound 143] displayed an EC50 below 100 nM.
For `CN=[S@](C)(=O)c1sc(N2CCCN(c3ccc(-c4cc(F)ccc4F)cc3)C2=O)nc1C` (single isomer, unassigned) [Compound 153], the EC50 was 100 to 1000 nM.
On the same count and under the same terms, as for `Cc1nc(N2CCCN(c3ccc(-c4cc(F)ccc4C(C)(F)F)cc3)C2=O)sc1S(N)(=O)=O` [Compound 225], the figure is below 100 nM; as for `Cc1nc(N2CCCN(c3ccc(-c4nn(C)c5ccccc45)cc3)C2=O)sc1S(N)(=O)=O` [Compound 92], below 100 nM; as for `Cc1nc(N2CCN(c3ccc(-c4cc(F)cc5nsnc45)cc3)C2=O)sc1S(N)(=O)=O` [Compound 314], below 100 nM.
The compound `Cc1nc(N2CCCN(c3ccc(-c4cc(F)cc5c4ccn5C(F)F)cc3)C2=O)sc1S(N)(=O)=O` [Compound 299] displayed an EC50 below 100 nM.
Same read-out and setting: under `COCCCNS(=O)(=O)c1sc(N2CCCN(c3ccc(-c4cc(F)ccc4F)cc3)C2=O)nc1C` [Compound 416] stands below 100 nM.
In turn, `Cc1nc(N2CCCN(c3ccc(-c4cc(C5CC5)ccc4F)cc3)C2=O)sc1S(N)(=O)=O` [Compound 205] registered an EC50 of 100 to 1000 nM.
Still for that read-out and setting: as for `Cc1nc(N2CCCN(c3ccc(-c4ccccc4C4COC4)cc3)C2=O)sc1S(N)(=O)=O` [Compound 197], the figure is 1000 to 5000 nM; as for `COc1c(F)cc(F)cc1-c1ccc(N2CC(F)(F)CN(c3nc(C)c(S(N)(=O)=O)s3)C2=O)cc1` [Compound 375], below 100 nM; as for `Cc1nc(N2CC(C)CN(c3ccc(-c4ccccc4Cl)cc3)C2=O)sc1S(N)(=O)=O` (stereo not drawn) [Compound 321], below 100 nM.
On the same count and under the same terms, under `Cc1cc(O)cc(-c2ccc(N3CCCN(c4nc(C)c(S(N)(=O)=O)s4)C3=O)cc2)n1` [Compound 238] stands 1000 to 5000 nM.
In the case of `CCC[S@@](=N)(=O)c1sc(N2CCCN(c3ccc(-c4cc(F)cc(F)c4F)cc3)C2=O)nc1C` (single isomer, unassigned) [Compound 424], the EC50 is below 100 nM.
On the same count and under the same terms, under `Cc1nc(N2CC3(COC3)CN(c3ccc(-c4cc(F)cc5nonc45)cc3)C2=O)sc1S(N)(=O)=O` [Compound 341] stands below 100 nM; under `Cc1nc(N2CCCN(c3ccc(-c4cc(F)ccc4F)c4scnc34)C2=O)sc1S(N)(=O)=O` [Compound 311], 100 to 1000 nM; under `Cc1nc(N2CCCN(c3ccc(-c4cc(F)ccn4)cc3)C2=O)sc1S(=O)(=O)NC1CC1` [Compound 408], below 100 nM.
Same read-out and setting: under `Cc1nc(N2C[C@H](C(N)=O)CN(c3ccc(-c4cc(F)ccc4F)cc3)C2=O)sc1S(N)(=O)=O` (single isomer, unassigned) [Compound 382] stands 100 to 1000 nM; under `Cc1nc(N2C(=O)N(c3ccc(-c4cc(F)ccc4F)cc3)CC[C@H]2C)sc1S(N)(=O)=O` (single isomer, unassigned) [Compound 108], below 100 nM; under `Cc1nc(N2CCCN(c3ccc(-c4nccc5ncsc45)cc3)C2=O)sc1S(N)(=O)=O` [Compound 260], below 100 nM.
Still for that read-out and setting: under `Cc1nc(N2CCCN(c3ccc(-c4cc(Cl)ccn4)cc3)C2=O)sc1S(N)(=O)=O` [Compound 185] stands below 100 nM; under `Cc1nc(N2CCCN(c3ccc(-c4cccc(-c5cncs5)c4)cc3)C2=O)sc1S(N)(=O)=O` [Compound 31], below 100 nM; under `Cc1nc(N2CC(O)CN(c3ccc(-c4cc(F)ccc4F)cc3)C2=O)sc1S(N)(=O)=O` (stereo not drawn) [Compound 353, 2-(3-(2′,5′-difluoro-[1,1′-biphenyl]-4-yl)-5-hydroxy-2-oxotetrahydropyrimidin-1(2H)-yl)-4-methylthiazole-5-sulfonamide], below 100 nM.
`Cc1nc(N2CCCN(c3ccc(-c4ccc(F)cc4F)cc3)C2=O)sc1S(N)(=O)=O` [Compound 187] yielded an EC50 of 100 to 1000 nM.
As for `Cc1nc(N2CCCCN(c3ccc(-c4cccc5ncsc45)cc3)C2=O)sc1[S@@](C)(=N)=O` (single isomer, unassigned) [Compound 429], the EC50 was below 100 nM.
Same read-out and setting: as for `Cc1nc(N2CCCN(c3ccc(-c4ccc(F)c(Cl)c4)cc3)C2=O)sc1S(N)(=O)=O` [Compound 186], the figure is 100 to 1000 nM; as for `Cc1nc(N2CC3(COC3)CN(c3ccc(-c4cc(F)cc5nsnc45)cc3)C2=O)sc1S(N)(=O)=O` [Compound 340], below 100 nM.
The same measure, in the same setting: as for `COc1c(F)cc(F)cc1-c1ccc(N2C[C@H](C(C)(C)O)CN(c3nc(C)c(S(N)(=O)=O)s3)C2=O)cc1` (single isomer, unassigned) [Compound 347], the figure is 100 to 1000 nM; as for `Cc1nc(N2CCCN(c3ccc(-c4ccc(C#N)c5c4ccn5C)cc3)C2=O)sc1S(N)(=O)=O` [Compound 300], 100 to 1000 nM.
With `Cc1nc(N2CCCN(c3ccc(-c4cc(F)cc5cc(C(C)(C)O)sc45)cc3)C2=O)sc1S(N)(=O)=O` [Compound 281], the EC50 lay within 100 to 1000 nM.
The compound `Cc1nc(N2CCCN(c3ccc(-c4cccc5nc(N)sc45)cc3)C2=O)sc1S(N)(=O)=O` [Compound 69] returned an EC50 below 100 nM.

Still in this test, the particulars now being: Human alphaherpesvirus 2, Vero, 120 h, Vero cells, 5 days.
Consider `Cc1nc(N2CCN(c3ccc(-c4cc(F)cc5nsnc45)cc3)C2=O)sc1S(N)(=O)=O` [Example 314], for which the midpoint of the response, the EC50, lay at 28 nM.

Staying with this test, now noted: Vero cells, 160 TCID50 HSV-2 G strain, 5 days, cell viability.
`Cc1nc(N2C[C@H](C)CN(c3ccc(-c4ccccc4F)cc3)C2=O)sc1S(N)(=O)=O` [Compound 324] registered an EC50 below 100 nM.
